According to ChEMBL document CHEMBL4819069, “Discovery of multifunctional anti-Alzheimer's agents with a unique mechanism of action including inhibition of the enzyme butyrylcholinesterase and γ-aminobutyric acid transporters” (Eur J Med Chem, 2021):
Active and inactive are the calls of the source. No cut-off for these calls is given here.

Columns and labels:
[1] = target: Amyloid-beta precursor protein (Homo sapiens) (UniProt P05067); assay: Inhibition of HFIP-pretreated amyloid beta (1 to 42) (unknown origin) aggregation at 10 uM after 36 to 48 hrs by thioflavin-T fluorescence assay relative to control; conditions: time 36-48 hrs
[2] = target: Acetylcholinesterase (Electrophorus electricus) (UniProt O42275); assay: Inhibition of electric eel AChE at 10 uM using acetylthiocholine as substrate preincubated for 5 mins followed by substrate addition and measured after 5 mins by Ellman's method relative to control; conditions: time 10.0 min
Chain of Acetylcholinesterase (Electrophorus electricus) (O42275 24-633 limits assumed): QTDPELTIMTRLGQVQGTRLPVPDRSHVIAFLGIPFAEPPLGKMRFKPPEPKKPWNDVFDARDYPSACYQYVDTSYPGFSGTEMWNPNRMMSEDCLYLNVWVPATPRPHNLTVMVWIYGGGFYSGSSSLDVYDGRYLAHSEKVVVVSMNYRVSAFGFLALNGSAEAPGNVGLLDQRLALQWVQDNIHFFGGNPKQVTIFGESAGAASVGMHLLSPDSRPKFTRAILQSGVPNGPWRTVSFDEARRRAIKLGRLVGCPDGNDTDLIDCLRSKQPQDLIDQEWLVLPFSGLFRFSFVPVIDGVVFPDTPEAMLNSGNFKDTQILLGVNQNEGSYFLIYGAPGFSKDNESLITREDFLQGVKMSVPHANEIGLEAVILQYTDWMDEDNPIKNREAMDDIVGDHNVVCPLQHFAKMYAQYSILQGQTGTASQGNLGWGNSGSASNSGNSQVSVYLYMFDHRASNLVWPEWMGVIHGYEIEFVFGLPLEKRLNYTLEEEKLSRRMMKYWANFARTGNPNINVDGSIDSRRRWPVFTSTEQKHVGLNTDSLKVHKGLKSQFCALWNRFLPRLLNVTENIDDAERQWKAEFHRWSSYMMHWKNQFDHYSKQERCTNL

Beta-secretase 1 = Beta-secretase 1 (Homo sapiens, UniProt P56817); conditions: dose 50.0 µM, time 60.0 min
Chain of Beta-secretase 1 (P56817 whole entry): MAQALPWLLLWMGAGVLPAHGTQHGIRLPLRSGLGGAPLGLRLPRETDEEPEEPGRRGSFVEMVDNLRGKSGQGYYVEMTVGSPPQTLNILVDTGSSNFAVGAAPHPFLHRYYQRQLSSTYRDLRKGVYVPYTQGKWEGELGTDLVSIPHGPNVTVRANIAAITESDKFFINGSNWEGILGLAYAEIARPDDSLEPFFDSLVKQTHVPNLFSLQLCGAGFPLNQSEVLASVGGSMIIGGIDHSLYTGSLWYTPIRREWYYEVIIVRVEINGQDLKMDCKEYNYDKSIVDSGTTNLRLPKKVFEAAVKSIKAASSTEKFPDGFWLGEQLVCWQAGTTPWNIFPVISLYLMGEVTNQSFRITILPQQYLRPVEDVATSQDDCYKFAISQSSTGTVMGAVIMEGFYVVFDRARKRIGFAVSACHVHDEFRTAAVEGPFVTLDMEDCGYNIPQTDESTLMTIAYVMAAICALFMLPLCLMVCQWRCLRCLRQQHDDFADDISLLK

[3] = target: Cholinesterase (Equus caballus) (UniProt P81908); assay: Noncompetitive inhibition of equine serum BuChE assessed as decrease in Vmax with constant Km using varying concentrations of BTC as substrate by Lineweaver-burk and Cornish-Bowden plot analysis
Chain of Cholinesterase (Equus caballus) (P81908 whole entry): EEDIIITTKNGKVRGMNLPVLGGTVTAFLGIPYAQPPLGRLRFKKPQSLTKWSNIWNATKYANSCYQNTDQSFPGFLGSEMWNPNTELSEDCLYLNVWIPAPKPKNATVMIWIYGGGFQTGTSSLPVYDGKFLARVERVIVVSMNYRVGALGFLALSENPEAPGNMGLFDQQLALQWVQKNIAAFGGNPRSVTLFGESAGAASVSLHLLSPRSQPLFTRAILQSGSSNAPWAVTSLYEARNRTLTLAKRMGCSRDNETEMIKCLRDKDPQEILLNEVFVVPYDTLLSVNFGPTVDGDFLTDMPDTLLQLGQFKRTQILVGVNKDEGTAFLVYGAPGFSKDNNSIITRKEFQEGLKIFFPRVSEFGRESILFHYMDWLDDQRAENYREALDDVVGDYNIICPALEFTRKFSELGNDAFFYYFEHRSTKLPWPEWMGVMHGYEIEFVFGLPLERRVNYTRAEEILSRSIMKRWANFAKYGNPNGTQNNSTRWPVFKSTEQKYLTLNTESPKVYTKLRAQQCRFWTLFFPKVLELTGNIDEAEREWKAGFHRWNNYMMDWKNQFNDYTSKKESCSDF

[4] = target: T1, Sodium- and chloride-dependent GABA transporter 1 (Mus musculus, UniProt P31648); assay: Inhibition of mouse GAT1 expressed in HEK293 cell line assessed as reduction in [3H]GABA uptake incubated for 10 mins; assay type: cell-based
[5] = target: T2, GABA transporter 4 (Mus musculus) (UniProt P31650); assay: Inhibition of mouse GAT3 expressed in HEK293 cell line assessed as reduction in [3H]GABA uptake at 100 uM incubated for 10 mins relative to control; assay type: cell-based
T2 sequence (whole entry): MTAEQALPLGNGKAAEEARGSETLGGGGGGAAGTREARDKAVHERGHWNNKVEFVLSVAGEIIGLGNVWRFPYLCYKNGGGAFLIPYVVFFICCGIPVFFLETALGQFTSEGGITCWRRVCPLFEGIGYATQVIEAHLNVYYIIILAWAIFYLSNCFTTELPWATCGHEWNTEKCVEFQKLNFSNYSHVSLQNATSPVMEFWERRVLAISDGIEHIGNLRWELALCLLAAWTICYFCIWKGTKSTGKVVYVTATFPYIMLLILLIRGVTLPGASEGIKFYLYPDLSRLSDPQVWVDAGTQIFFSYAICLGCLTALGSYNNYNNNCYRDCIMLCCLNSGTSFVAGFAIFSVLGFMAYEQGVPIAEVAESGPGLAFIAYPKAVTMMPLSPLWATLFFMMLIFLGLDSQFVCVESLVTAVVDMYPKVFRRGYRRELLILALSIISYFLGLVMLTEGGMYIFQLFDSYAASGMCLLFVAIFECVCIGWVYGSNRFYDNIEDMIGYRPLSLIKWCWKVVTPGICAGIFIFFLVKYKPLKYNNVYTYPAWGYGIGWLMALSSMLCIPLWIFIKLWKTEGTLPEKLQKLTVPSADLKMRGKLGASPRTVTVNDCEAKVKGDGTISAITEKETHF

GABA transporter 4 = target: T3, GABA transporter 4 (Mus musculus, UniProt P31650); assay: Inhibition of mouse GAT4 expressed in HEK293 cell line assessed as reduction in [3H]GABA uptake incubated for 10 mins; assay type: cell-based
T3 sequence (P31650 whole entry): T2 sequence (whole entry)

[6] = target: Sodium- and chloride-dependent GABA transporter 1 (Mus musculus) (UniProt P31648); assay: Inhibition of NO711 binding to mouse GAT1 expressed in HEK cell membranes at 100 uM incubated for 40 mins in presence of NO711 by LC-ESI-MS/MS analysis relative to control; conditions: Membrane
[7] = Neurotoxicity against mouse HT22 cells assessed as cell viability at 10 uM incubated for 24 hrs by MTT assay; assay type: cell-based, HT-22; conditions: ht-22, 24 h, 10 µM
[8] = Neurotoxicity against mouse HT22 cells assessed as cell viability at 30 uM incubated for 24 hrs by MTT assay; assay type: cell-based, HT-22; conditions: ht-22, 24 h, 30 µM
[9] = Hepatotoxicity in human HepG2 cells at 50 to 100 uM incubated for 72 hrs by MTS assay; assay type: cell-based; conditions: hepg2, 72 h, dose 50-100 µM
[10] = Hepatotoxicity in human HepG2 cells at 1 uM incubated for 72 hrs by MTS assay; assay type: cell-based; conditions: hepg2, 72 h
[11] = Hepatotoxicity in human HepG2 cells at 10 uM incubated for 72 hrs by MTS assay; assay type: cell-based; conditions: hepg2, 72 h
[12] = Metabolic stability in human liver microsomes assessed as parent compound remaining after 120 mins in presence of NADPH regeneration system by UPLC/MS anlaysis; assay type: ADME, Microsome; conditions: read-out: Stabilty
Cytochrome P450 3A4 = Cytochrome P450 3A4 (Homo sapiens, UniProt P08684); assay: Inhibition of CYP3A4 (unknown origin) at 10 uM; assay type: ADME
Chain of Cytochrome P450 3A4 (P08684 whole entry): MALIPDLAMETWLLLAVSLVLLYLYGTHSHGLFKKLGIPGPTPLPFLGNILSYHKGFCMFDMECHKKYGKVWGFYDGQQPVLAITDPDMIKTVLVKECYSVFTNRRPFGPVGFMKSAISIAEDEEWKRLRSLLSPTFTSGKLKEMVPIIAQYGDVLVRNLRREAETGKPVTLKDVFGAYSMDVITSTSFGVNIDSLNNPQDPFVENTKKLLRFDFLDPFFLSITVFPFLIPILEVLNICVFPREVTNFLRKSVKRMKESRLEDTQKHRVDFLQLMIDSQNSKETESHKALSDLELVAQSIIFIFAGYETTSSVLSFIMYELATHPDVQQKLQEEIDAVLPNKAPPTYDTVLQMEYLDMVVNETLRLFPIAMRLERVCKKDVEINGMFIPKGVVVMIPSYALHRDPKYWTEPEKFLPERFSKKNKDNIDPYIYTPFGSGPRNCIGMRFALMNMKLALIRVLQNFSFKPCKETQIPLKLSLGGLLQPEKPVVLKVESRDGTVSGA

Cytochrome P450 2D6 = Cytochrome P450 2D6 (Homo sapiens, UniProt P10635); assay: Inhibition of CYP2D6 (unknown origin) at 10 uM; assay type: ADME
Chain of Cytochrome P450 2D6 (P10635 whole entry): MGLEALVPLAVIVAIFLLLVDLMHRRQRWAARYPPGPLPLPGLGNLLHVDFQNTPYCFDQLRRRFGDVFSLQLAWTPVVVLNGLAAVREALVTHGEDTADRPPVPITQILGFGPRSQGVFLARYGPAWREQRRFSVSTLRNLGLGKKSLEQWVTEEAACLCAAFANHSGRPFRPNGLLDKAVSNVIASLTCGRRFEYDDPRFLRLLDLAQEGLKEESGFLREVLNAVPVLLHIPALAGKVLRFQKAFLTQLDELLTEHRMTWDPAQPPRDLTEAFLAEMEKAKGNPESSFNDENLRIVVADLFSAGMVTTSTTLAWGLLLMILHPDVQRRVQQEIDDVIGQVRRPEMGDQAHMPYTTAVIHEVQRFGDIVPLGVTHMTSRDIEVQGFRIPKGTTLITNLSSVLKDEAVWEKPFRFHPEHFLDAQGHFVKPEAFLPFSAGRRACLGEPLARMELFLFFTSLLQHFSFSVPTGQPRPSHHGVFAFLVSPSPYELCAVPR

Cholinesterase [13] = target: Cholinesterase (Equus caballus, UniProt P81908)
Chain of Cholinesterase (Equus caballus, UniProt P81908) (P81908 whole entry): as the sequence (P81908 whole entry) above
Description: Inhibition of equine serum BuChE using butyrylthiocholine as substrate preincubated for 5 mins followed by substrate addition and measured after 5 mins by Ellman's method

Cholinesterase [14] = target: Cholinesterase (Homo sapiens, UniProt P06276)
Chain of Cholinesterase (Homo sapiens, UniProt P06276) (P06276 whole entry): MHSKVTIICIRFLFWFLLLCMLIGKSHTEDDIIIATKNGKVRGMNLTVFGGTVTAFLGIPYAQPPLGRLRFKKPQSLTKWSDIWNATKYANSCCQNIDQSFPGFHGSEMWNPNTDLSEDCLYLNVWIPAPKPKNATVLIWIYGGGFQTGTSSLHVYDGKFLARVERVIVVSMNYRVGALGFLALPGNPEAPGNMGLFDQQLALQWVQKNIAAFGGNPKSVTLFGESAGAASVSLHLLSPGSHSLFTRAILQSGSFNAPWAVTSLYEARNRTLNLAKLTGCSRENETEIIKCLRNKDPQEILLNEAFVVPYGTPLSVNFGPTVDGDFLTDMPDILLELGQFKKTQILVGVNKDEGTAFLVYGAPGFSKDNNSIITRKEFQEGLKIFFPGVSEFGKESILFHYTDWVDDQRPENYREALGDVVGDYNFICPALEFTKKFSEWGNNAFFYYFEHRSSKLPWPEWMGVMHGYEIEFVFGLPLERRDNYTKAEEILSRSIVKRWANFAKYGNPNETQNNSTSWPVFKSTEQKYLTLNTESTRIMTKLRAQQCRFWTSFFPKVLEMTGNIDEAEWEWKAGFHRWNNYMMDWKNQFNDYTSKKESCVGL
Description: Inhibition of human BuchE using butyrylthiocholine as substrate preincubated for 5 mins followed by substrate addition and measured after 5 mins by Ellman's method

[15] = target: T4, Sodium- and chloride-dependent GABA transporter 3 (Homo sapiens, UniProt P48066); assay: Inhibition of human GAT3 expressed in COS-7 cells assessed as reduction in [2H6]GABA uptake preincubated for 25 mins followed by [2H6]GABA addition and measured after 6 mins by LC-MS/MS analysis; assay type: cell-based
T4 sequence (P48066 whole entry): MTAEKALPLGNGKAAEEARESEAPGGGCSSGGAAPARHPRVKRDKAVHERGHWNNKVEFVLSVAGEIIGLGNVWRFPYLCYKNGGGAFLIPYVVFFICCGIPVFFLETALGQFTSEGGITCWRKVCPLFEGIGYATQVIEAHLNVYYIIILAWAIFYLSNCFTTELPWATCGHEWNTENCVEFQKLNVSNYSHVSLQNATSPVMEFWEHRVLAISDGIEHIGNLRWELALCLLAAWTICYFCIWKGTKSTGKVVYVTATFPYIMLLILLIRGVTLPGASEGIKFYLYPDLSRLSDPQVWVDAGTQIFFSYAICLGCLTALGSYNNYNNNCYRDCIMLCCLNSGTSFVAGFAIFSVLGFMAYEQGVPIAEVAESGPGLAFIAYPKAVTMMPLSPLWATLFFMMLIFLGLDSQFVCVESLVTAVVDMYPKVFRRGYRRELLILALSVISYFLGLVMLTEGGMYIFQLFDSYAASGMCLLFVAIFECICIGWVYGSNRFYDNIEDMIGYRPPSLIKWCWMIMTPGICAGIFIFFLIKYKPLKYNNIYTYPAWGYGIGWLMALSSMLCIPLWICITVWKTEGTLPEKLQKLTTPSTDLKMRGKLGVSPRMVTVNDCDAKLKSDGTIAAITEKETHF

[16] = target: T1, Sodium- and chloride-dependent GABA transporter 1; assay: Inhibition of NO711 binding to mouse GAT1 expressed in HEK cell membranes incubated for 40 mins in presence of NO711 by LC-ESI-MS/MS analysis; design: species or system Membrane

SMILES	inhibition [1] [%]	inhibition [2] [%]	inhibition (Beta-secretase 1) [%]	inhibition [3]	IC50 [4] [µM]	inhibition [5] [%]	IC50 (GABA transporter 4) [µM]	inhibition [6] [%]	Activity [7]	Activity [8]	Activity [9]	Activity [10]	Activity [11]	remaining at 2 h [12] [%]	inhibition (INH) (Cytochrome P450 3A4)	inhibition (INH) (Cytochrome P450 2D6)	IC50 (Cholinesterase [13]) [µM]	IC50 (Cholinesterase [14]) [µM]	IC50 [15] [µM]	IC50 [16] [µM]
CC(C)(C)CNC[C@@H](O)[C@H](Cc1ccccc1)NC(=O)C(c1ccccc1)c1ccccc1	20.5	< 10	40	Active	25.1	54	30.9	71	Non-Toxic	Toxic	Toxic	Non-Toxic	Non-Toxic	79.2	Active	Active	0.1	0.45		
COc1ccc(C(/C=C/CN2CCC[C@H](C(=O)O)C2)(c2ccc(OC)cc2)c2ccc(OC)cc2)cc1																			1.59	46.8
COc1ccc(C(OCCN2CCC[C@H](C(=O)O)C2)(c2ccc(OC)cc2)c2ccc(OC)cc2C)cc1																			3.16	
